Here are results for 16 compounds from US20100137372A1, “ISOXAZOLINE COMPOUNDS AND THEIR USE IN PEST CONTROL” (priority 2007, published 2010).

For one experiment, the system named is diamondback moth (Plutella xylostella). Put plainly: Test Example 1: spray of test liquid on cabbage plant, control efficacy against diamondback moth larvae. The class given is in vivo. The settings on record: 120 h, active ingredient concentration 500 ppm, 20 ml per cup sprayed on cabbage, 10 third-instar larvae, counted after 5 days.
Turning to `Cc1c(NC(=O)CC(F)(F)F)cccc1C1=NOC(c2cc(Cl)cc(Cl)c2)(C(F)(F)F)C1` (centres unmarked) [present compound (72), N-(3-(5-(3,5-dichlorophenyl)-4,5-dihydro-5-trifluoromethyl-3-isoxazolyl)-2-methylphenyl)-3,3,3-trifluoropropionylamide], the pest or weed control at 500 ppm is ≥ 80%.
For `O=C(Nc1cccc(C2=NOC(c3cc(Cl)cc(Cl)c3)(C(F)(F)F)C2)c1)c1cccnc1Cl` (centres unmarked) [present compound (7), N-(3-(5-(3,5-dichlorophenyl)-4,5-dihydro-5-trifluoromethyl-3-isoxazolyl)phenyl)-2-chloronicotinamide], the pest or weed control at 500 ppm is ≥ 80%.
Same read-out and setting: in the case of `CCc1ccc(C2=NOC(c3cc(Cl)cc(Cl)c3)(C(F)(F)F)C2)cc1NC(=O)CC(F)(F)F` (centres unmarked) [present compound (71), N-(3-(5-(3,5-dichlorophenyl)-4,5-dihydro-5-trifluoromethyl-3-isoxazolyl)-6-ethylphenyl)-3,3,3-trifluoropropionylamide] it was ≥ 80%; in that of `CCOC(=O)Nc1cc(C2=NOC(c3cc(Cl)cc(Cl)c3)(C(F)(F)F)C2)ccc1C` (centres unmarked) [present compound (60), N-(5-(5-(3,5-dichlorophenyl)-4,5-dihydro-5-trifluoromethyl-3-isoxazolyl)-2-methylphenyl)-O-ethylcarbamate], ≥ 80%; in that of `C/C=C/C(=O)Nc1cc(C2=NOC(c3cc(Cl)cc(Cl)c3)(C(F)(F)F)C2)ccc1C` (centres unmarked) [present compound (48), N-(5-(5-(3,5-dichlorophenyl)-4,5-dihydro-5-trifluoromethyl-3-isoxazolyl)-2-methylphenyl)crotonamide], ≥ 80%.
On the same count and under the same terms, the same measure for `Cc1ccc(C2=NOC(c3cc(Cl)cc(Cl)c3)(C(F)(F)F)C2)cc1NC(=O)OCC(C)C` (centres unmarked) [present compound (64), N-(5-(5-(3,5-dichlorophenyl)-4,5-dihydro-5-trifluoromethyl-3-isoxazolyl)-2-methylphenyl)-O-isobutylcarbamate]: ≥ 80%.
On the same count and under the same terms, the same measure for `Cc1ccc(C2=NOC(c3cc(Cl)cc(Cl)c3)(C(F)(F)F)C2)cc1NC(=O)c1ccc(F)cc1` (centres unmarked) [present compound (15), N-(5-(5-(3,5-dichlorophenyl)-4,5-dihydro-5-trifluoromethyl-3-isoxazolyl)-2-methylphenyl)-4-fluorobenzamide]: ≥ 80%.
On to `Cc1ccc(C2=NOC(c3cc(Cl)cc(Cl)c3)(C(F)(F)F)C2)cc1NC(=O)N(C)C` (centres unmarked) [present compound (57), 3-(5-(5-(3,5-dichlorophenyl)-4,5-dihydro-5-trifluoromethyl-3-isoxazolyl)-2-methylphenyl)-1,1-dimethylurea], for which the pest or weed control at 500 ppm was ≥ 80%.
Still for that read-out and setting: in the case of `COc1ccc(C2=NOC(c3cc(Cl)cc(Cl)c3)(C(F)(F)F)C2)cc1NC(=O)CC(F)(F)F` (centres unmarked) [present compound (78), N-(5-(5-(3,5-dichlorophenyl)-4,5-dihydro-5-trifluoromethyl-3-isoxazolyl)-2-methoxyphenyl)-3,3,3-trifluoropropionylamide] it was ≥ 80%; in that of `N#Cc1ccc(C(=O)Nc2cccc(C3=NOC(c4cc(Cl)cc(Cl)c4)(C(F)(F)F)C3)c2)cc1` (centres unmarked) [present compound (5), N-(3-(5-(3,5-dichlorophenyl)-4,5-dihydro-5-trifluoromethyl-3-isoxazolyl)phenyl)-4-cyanobenzamide], ≥ 80%.
Same read-out and setting: the same measure for `Cc1ccc(C2=NOC(c3cc(Cl)cc(Cl)c3)(C(F)(F)F)C2)cc1NC(=O)c1cccc(Cl)c1` (centres unmarked) [present compound (17), N-(5-(5-(3,5-dichlorophenyl)-4,5-dihydro-5-trifluoromethyl-3-isoxazolyl)-2-methylphenyl)-3-chlorobenzamide]: ≥ 80%; for `Cc1ccc(C2=NOC(c3cc(Cl)cc(Cl)c3)(C(F)(F)F)C2)cc1NC(=O)c1ccc(C(F)(F)F)cc1` (centres unmarked) [present compound (31), N-(5-(5-(3,5-dichlorophenyl)-4,5-dihydro-5-trifluoromethyl-3-isoxazolyl)-2-methylphenyl)-4-trifluoromethylbenzamide]: ≥ 80%.
The same measure, in the same setting: in the case of `Cc1ccc(C2=NOC(c3cc(Cl)cc(Cl)c3)(C(F)(F)F)C2)cc1NC(=O)c1ccccc1F` (centres unmarked) [present compound (13), N-(5-(5-(3,5-dichlorophenyl)-4,5-dihydro-5-trifluoromethyl-3-isoxazolyl)-2-methylphenyl)-2-fluorobenzamide] it was ≥ 80%; in that of `COc1ccc(C(=O)Nc2cc(C3=NOC(c4cc(Cl)cc(Cl)c4)(C(F)(F)F)C3)ccc2C)cc1` (centres unmarked) [present compound (30), N-(5-(5-(3,5-dichlorophenyl)-4,5-dihydro-5-trifluoromethyl-3-isoxazolyl)-2-methylphenyl)-4-methoxybenzamide], ≥ 80%; in that of `COC(=O)NNc1cc(C2=NOC(C)(c3ccccc3)C2)ccc1Cl` (centres unmarked) [compound number 1-2, reference compound], 0%.

A further experiment has as its system summer fruit tortrix (Adoxophyes orana). The experiment is described as follows: Test Example 2: artificial feed irrigated with test dilution, mortality of summer fruit tortrix larvae. The settings on record: 168 h. The class given is in vivo. Here is the method:
The formulation of the present compound (79) obtained according to Formulation Example 5 was diluted with water so as to have an active ingredient concentration of 2,500 ppm. Thus, a test dilution was prepared.
The bottom of a polyethylene cup having a diameter of 5.5 cm was covered with a filter paper having the same diameter. Artificial feed (Silkmate 2S; Nihon Nosan Kogyo K.K.) sliced in a thickness of 2 mm was placed on the filter paper, and 1 mL of the above-mentioned test dilution was irrigated on the artificial feed. After air-drying of the test dilution, a filter paper having a diameter of 5.5 cm was placed on the artificial feed, and 30 first-instar larvae of summer fruit tortrix (Adoxophyes orana) were released on this filter paper, after which the cup was closed with a lid. After 7 days, larvae of summer fruit tortrix were counted and the mortality was calculated by the following equation:
Mortality (t)=(Number of dead larvae/Number of released larvae)×100
On to `COC(=O)Nc1cc(C2=NOC(c3cc(Cl)cc(Cl)c3)(C(F)(F)F)C2)ccc1Cl` (centres unmarked) [present compound (79), N-(5-(5-(3,5-dichlorophenyl)-4,5-dihydro-5-trifluoromethyl-3-isoxazolyl)-2-chlorophenyl)-O-methylcarbamate], for which the mortality at 2500 ppm is ≥ 80%.

Still in this experiment, the particulars now being: 168 h, active ingredient concentration 2,500 ppm, 1 mL on artificial feed, 30 first-instar larvae, counted after 7 days, read-out: Mortality.
On to `COC(=O)NNc1cc(C2=NOC(C)(c3ccccc3)C2)ccc1Cl` (centres unmarked) [compound number 1-2, reference compound], for which the mortality at 2500 ppm was found to be 0%.
